Measurements reported in patent US10597649B2, “Tau protease compositions and methods of use” (Oligomerix, Inc., priority 2011, dated 2020).

Tests used:
Format in all cases: biochemical
[1] = Tau protease enzymatic activity of truncated tau peptides (general statement)
tau 4R2N trimer protease = biological target: T1, tau 4R2N trimer protease (Homo sapiens, UniProt P10636); test: Peptide assay (tau peptide 335-353, reverse-phase HPLC) used to screen serine protease inhibitors; settings: 1 mM PMSF (also printed 1 μM), one hr at room temperature before peptide substrate
T1 construct: Stabilization buffer enables production of full length monomer, dimer and trimer for tau protease; made in house; host or cells: E. coli BL21 (DE3) Gold
Text: N-terminal sequencing of fragments using mass spectrometry identified autoproteolytic cut sites. In particular, cutting at the Lys340-Ser341 (340KS341) cut site occurred readily. Therefore, a 19-amino acid peptide corresponding to amino acids 335G to 353L of tau protein was synthesized that contained the KS cut site (340KS341). The reaction was monitored by reverse-phase high-pressure liquid chromatography (HPLC). […] An asterisk marks a non-specific contaminant that was used as a marker. […] 10 μg of tau peptide 335-353 ([…]) (SEQ ID NO:19) was custom synthesized by Genscript (Piscataway, N.J., USA) and 1 mg was dissolved in 1 mL of buffer (25 mM Tris-HCl pH 7.4). […] of peptide was incubated with 11 μg of tau trimer protease in 30 μL buffer 20 hr at 37° C. and analyzed by HPLC [SystemGold® 32Karat™ LC-CE System, Beckman Coulter, Inc., (Indianapolis, Ind.)] using a linear gradient of acetonitrile in 0.1% TFA 0-60% acetonitrile on an analytical C18 column (12.5 cm×2.1 mm, 5 μm, (Supelco, Bellefonte, Pa., USA). 30 μg of peptide was incubated without tau protease as a negative control and analyzed with the same method;
The peptide assay for tau 4R2N trimer activity described in FIG. 5 was used to screen a series of serine protease inhibitors. 1 mM AEBSF was incubated with tau 4R2N trimer for 1 hr at room temperature before addition of the peptide substrate. […] The asterisk indicates an artifactual peak unrelated to the peptide;

[2] = system: tau protein from a specimen of Alzheimer's brain; test: FP-TAMRA labeling of tau immunopurified from AD brain; settings: AD brain lysate treated with PMSF before 2 μM FP-TAMRA probe
Text: Serine hydrolases include a class of enzymes that include serine proteases. The serine hydrolase superfamily is one of the largest known enzyme families that share a catalytic mechanism that involves a serine nucleophile. Phenylmethanesulfonyl fluoride (PMSF) irreversibly binds to the active site serine of serine hydrolases to inactivate their enzymatic activity and prevents the probe from labeling them. […] Protein was extracted from an AD brain by Dounce homogenization in TPER buffer (ThermoFisher Scientific) with 1 mM EDTA, 1 μg/mL pepstatin A, […] phosphoramidon, phosphatase inhibitor (ThermoFisher Scientific). The lysate was cleared by centrifugation at 10,000×g for 20 min. The supernatant was depleted for biotin using Streptavidin-agarose (ThermoFisher Scientific). A probe specific for active serine hydrolases, fluorophosphonate (FP) labeled with a fluorescent carboxytetramethylrhodamine (TAMRA) tag (ThermoFisher Scientific), was incubated with the lysate at a final concentration of 2 μM. As a control for non-specific labeling, a portion of the lysate was treated with phenylmethanesulfonyl fluoride (PMSF), an irreversible inhibitor of serine hydrolases, including tau protease, before using the FP-TAMRA probe. Biotinylated monoclonal antibody HT7 (ThermoFisher Scientific) was used to capture total tau from the lysate with streptavidin-agarose beads (ThermoFisher Scientific). […]

T1 sequence (P10636 1-441 isoform P10636-8): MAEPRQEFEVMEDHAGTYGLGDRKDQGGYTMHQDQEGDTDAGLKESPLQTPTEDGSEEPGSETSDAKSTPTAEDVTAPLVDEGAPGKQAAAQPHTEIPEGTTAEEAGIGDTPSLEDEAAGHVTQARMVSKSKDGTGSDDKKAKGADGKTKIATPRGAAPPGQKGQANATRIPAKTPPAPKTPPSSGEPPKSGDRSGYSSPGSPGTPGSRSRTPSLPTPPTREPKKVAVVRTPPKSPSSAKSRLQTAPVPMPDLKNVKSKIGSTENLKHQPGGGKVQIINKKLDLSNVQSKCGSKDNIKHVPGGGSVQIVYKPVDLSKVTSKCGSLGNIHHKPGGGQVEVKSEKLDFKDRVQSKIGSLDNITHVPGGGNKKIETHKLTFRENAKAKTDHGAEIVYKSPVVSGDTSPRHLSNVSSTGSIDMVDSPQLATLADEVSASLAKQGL

Row | Molecule | tau protease enzymatic activity [1] | inhibition of cleavage of the peptide (FIG. 14E) (tau 4R2N trimer protease) | FP-TAMRA labeling of immunocaptured protein bands [2]
1 | TP-118: 118 amino acid truncated tau peptide, 4R2N 268-385 (SEQ ID NO:2) | retain tau protease enzymatic activity | – | –
2 | O=S(=O)(F)Cc1ccccc1 [PMSF, phenylmethanesulfonyl fluoride] | – | strongly inhibited | reduced labeling
